Laboratory results as given in US6566359B1, “2,4,6-trimethyl-1,4-dihydro-pyridine-3,5-dicarboxylic acid esters as neuroprotective drugs” (Board of Supervisors of Louisiana State University and …, priority 2002, dated 2003).
Structures can show the parent of a compound that is named as a salt.

Key:
[1] = test system: c-jun aminoterminal protein kinase (JNK); experiment: PAF-mediated JNK activation in HEK-293 cells, immunocomplex kinase assay; type: cell-based, human; conditions: PAF 100 nM
Protocol: Experimental Protocol: HEK-293 cells (transformed primary human embryo kidney cells, ATCC# CRL-1573) were cultured to confluency in DMEM-10% FBS high-glucose medium (GIBCO-BRL, Rockville, Md). Cells were cultured in 6-well plates and were treated with PAF (100 nM) for 60 min or interleukin-1β (“IL-1β”; 10 ng/ml) for 30 min, and then frozen for later assays for JNK and ERK as described below. To test the effect of compounds of the LAU-0900 series, HEK-293 cells were treated for 30 min with various concentrations (from 10 nM to 1 μM) of the experimental LAU-0900 series compound before the addition of PAF or IL-1β. […]
To measure the JNK activity, aliquots of 5 μg immunoprecipitates were incubated for 30 min at 30° C. using 10 μg GST-cJUN (Santa Cruz Biotechnology, Santa Cruz, Calif.) as substrate. […] The filter papers were washed twice with 10 mL per square 1% phosphoric acid, followed by one wash with water. ^32P on the filter paper was counted in a scintillation counter to quantify the phosphorylation of substrate proteins.

[2] = Middle cerebral artery occlusion (MCA-O) stroke model, infarct volume by TTC; type: in vivo, C57BL/6 mice
human COX-2 promoter [3] = experiment: PAF-induced COX-2 promoter-luciferase transcription in CV-1 cells; type: cell-based; conditions: 100 nM compound, 100 nM PAF
Protocol: (§1) To test the ability of LAU-0900 series compounds to inhibit COX-2 expression, a kidney cell line was transiently transfected with the 830-base-pair human COX-2 promoter construct (proximal to the transcription start site) fused to the luciferase gene as a reporter as described below.
(§2) Transfection of CV-1 cells with human COX-2promoterfused with LUC: C V-1 Cells (African green monkey kidney cell line, ATCC # CCL-17) were grown in DMEM-F12 (GIBCO-BRL, Rockville, Md.) supplemented with 10% FBS (fetal bovine serum) in 6-well plates. At 80% confluence, the cells were transfected with 10 μg human COX-2 promoter-LUC construct (containing 830 base pairs of the human COX-2 promoter (donated by Dr. Stephen Prescot, Huntsman Cancer Institute, Salt Lake City, Utah) using a liposomal transfection reagent (DOTAP, Roche Diagnostics, Gmbh, Mannheim, Germany). Promoterless β-galactosidase construct (Promega, Madison, Wis.) was co-transfected to assess transfection efficiency. Three hours after transfection at 37° C., the medium was removed, and the cells were washed with phonsphate-buffered saline solution, pH 7.2 (PBS; Gibco-BRL, Rockville Md. The plates were further incubated at 37° C. in complete medium DMEM-F12 with 10% FBS for about 8-10 hr. Before the addition of the inducers of COX-2, PAF (100 nM) or IL-1β (10 ng/ml), the CV-1-transfected cells were serum-starved for 8 hr at 37° C. After the addition of the inducers, the cells were incubated for 8-10 hr at 37° C. Then the medium was removed, the cells were washed with PBS, harvested, and frozen at −80° C. until used for assays.
(§3) To test the effectiveness of the LAU-0900 series compounds, the transfected cells were treated for 1 hr with 100 nM of various LAU-0900 series compounds before the addition of the inducers (either PAF or IL-1β, and the LAU-0900 compound remained in the medium throughout the incubation period.
(§4) Luciferase assay of transfected CV-1 cells: Frozen cells were homogenized in 300 μl luciferase assay buffer (“ALL”, Analytical Luminescence Laboratory, San Diego, Calif.), and cellular debris was collected as a pellet by centrifugation at 2800×g for 20 min at 4° C. Supernatants (20-30 μl) were normalized to 1 μg/ml of total protein content, and were mixed with 70-80 μl ALL buffer. Reactions were initiated by injection of 100 μl of 1 mM luciferin (Sigma Chemical Co., St. Louis, Mo.). The relative light units were determined by using an ALL luminometer that recorded over 20-second intervals.

human COX-2 promoter [4] = experiment: IL-1β-induced COX-2 promoter-luciferase transcription in CV-1 cells; type: cell-based; conditions: 100 nM compound, 10 nM IL-1β
Protocol: as §1, §2, §3, §4

ARPE-19 cells = experiment: Oxidative stress-induced cell death (TNF + H2O2), Hoechst staining; type: cell-based, human; conditions: TNF 10 ng/ml + H2O2 1.6 μM
Protocol: To test the effectiveness of the LAU-0900 series compounds as inhibitors of oxidative stress-induced cell death, human retinal pigment epithelial cells in culture (ARPE-19 cells, ATCC #CRL-2302) were used. ARPE-19 cells were cultured to confluence in DMEM-10% FBS medium (Gibco-BRL). The cells were then divided into 11 groups. Nine groups were exposed overnight to […] of a test compound selected from LAU-0901, LAU-0903, LAU-0904, LAU-0905, LAU-0906, LAU-0907, LAU-0908, LAU-0909, and LAU-0910. The other two groups were control groups, and were not exposed to any test chemical. In the nine groups and in one control group, oxidative stress was triggered by the addition of a combination of tumor necrosis factor (“TNF”; 10 ng/ml) and hydrogen peroxide (“H2O2”; 1.6 μM). The second control group was not treated with TNF and H2O2.
The amount of Hoeschst staining was least in the group treated with LAU-0901, and most in the group treated with LAU-0910.

[5] = biological target: intracellular type PAF receptor (rat brain microsomal preparations) (Rattus norvegicus, UniProt P46002); experiment: Competition for 3H-PAF binding to rat brain cortex microsomal membranes; conditions: rat brain microsomal
Sequence of intracellular type PAF receptor (rat brain microsomal preparations) (P46002 whole entry): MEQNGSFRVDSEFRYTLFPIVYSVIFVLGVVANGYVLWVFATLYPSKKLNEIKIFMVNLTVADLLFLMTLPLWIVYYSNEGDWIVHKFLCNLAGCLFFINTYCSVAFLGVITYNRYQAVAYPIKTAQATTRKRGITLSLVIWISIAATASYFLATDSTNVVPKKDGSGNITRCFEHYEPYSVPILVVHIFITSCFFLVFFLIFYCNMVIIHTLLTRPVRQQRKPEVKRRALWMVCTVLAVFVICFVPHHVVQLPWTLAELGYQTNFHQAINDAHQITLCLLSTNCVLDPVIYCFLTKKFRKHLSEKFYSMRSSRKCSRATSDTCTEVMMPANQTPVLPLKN
Protocol: (§5) Binding studies were performed on subcellular fractions of tissues obtained from rat brain cortex, according to procedures described in V. Marcheselli et al., “Distinct platelet-activating factor binding sites in synaptic endings and in intracellular membranes of rat cerebral cortex,” J. biol. Chem., vol. 265, pp. 9140-9145 (1990). Freshly dissected brain tissues were homogenized in ice-cold buffer (50 mM Tris-HCl, 2 mM EGTA, 5 mM PMSF, 250 mM sucrose, 7.4 pH). Subcellular fractions were obtained by differential centrifugation. The microsomal fraction was sedimented after 100,000×g for 1 hour centrifugation. In addition, three cell lines from Chinese hamster ovary (CHO) with varying expression of PAF receptors, CHO-A, CHO-B, and CHO-C cells (from Dr. Takao Shiizu, University of Tokyo, Tokyo, Japan) were cultured to the fourth-passage cells. These cells were cultured to confluence, then detached from their culturing flasks, and pelleted by rapid centrifugation (3,000 rpm, 10 min). Cellular pellets were homogenized in ice-cold buffer as described above. Freshly obtained microsomal fractions or CHO cellular homogenates were utilized for saturation, displacement, and competition studies using ^3H-PAF as the hot ligand, unlabeled-PAF to detect non-specific binding, and a LAU-0900 series compound to displace by competition ^3H-PAF bound to a receptor.

[6] = biological target: T1, cell-surface-type PAF receptor over-expressed in CHO-B cells (Cavia porcellus, UniProt P21556); experiment: Competition for 3H-PAF binding to CHO-B cell homogenates; conditions: CHO-B homogenates
T1 construct: expressed in transfected cells; host or cells: Chinese hamster ovary cells: CHO-B (high expression) and CHO-A (mild expression), used as cell homogenates
T1 sequence (P21556 whole entry): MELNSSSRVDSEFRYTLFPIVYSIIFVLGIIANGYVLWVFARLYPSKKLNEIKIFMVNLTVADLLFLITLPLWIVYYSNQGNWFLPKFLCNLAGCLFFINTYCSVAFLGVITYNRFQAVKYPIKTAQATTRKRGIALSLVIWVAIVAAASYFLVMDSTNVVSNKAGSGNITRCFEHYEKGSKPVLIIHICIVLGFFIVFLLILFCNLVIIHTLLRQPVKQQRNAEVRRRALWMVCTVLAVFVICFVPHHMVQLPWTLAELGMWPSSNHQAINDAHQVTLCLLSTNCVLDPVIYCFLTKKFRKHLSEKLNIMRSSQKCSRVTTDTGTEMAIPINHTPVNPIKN
Protocol: as §5
(§6) See B. Liu et al., “Implication of protein kinase C alpha in PAF-stimulated phospholipase D Activation in Chinese hamster ovary (CHO) cells expressing PAF receptor,” Biochem. Biophys. Res. Commun., vol.214, pp.418-423 (1995). […] Both the constants of inhibition (KI) and 50% of inhibitory activity (IC50) were significant at a low concentration of LAU-0903.

[7] = test system: CHO-C cells (do not exp PAF-R); experiment: Competition for 3H-PAF binding to CHO-C cell homogenates; conditions: CHO-C homogenates
Protocol: as §5, §6

[8] = known LD50; cited from earlier work
[9] = 30 mg/kg 1 hr after reperfusion following 1 hr of MCA-O

CC1=C(C(=O)OCCOc2ccc(Cl)c(Cl)c2)C(C)C(C(=O)OC(CN2CCOCC2)CN2CCOCC2)=C(C)N1 (centres unmarked) [LAU-0901, 2,4,6-Trimethyl-1,4-dihydro-pyridine-3,5-dicarboxylic acid 5-[2-(3,4-dichlorophenoxy)]ethyl ester 3-[1,3-di-(4-morpholinyl)-2-propyl-1-esterdihydrochloride]
Lowest concentration inhibiting PAF-induced JNK [1]: ≤ 10 nM | Reduction of infarcted volume [2, 9]: 40% | Reduction of infarcted volume ([2]; 30 mg/kg at the onset of MCA-O, 1 hr MCA-O, killed 24 hr later): 40% | Reduction of infarcted volume ([2]; 30 mg/kg intraperitoneally 1 h before MCA-O, 1 hr MCA-O, killed 24 hr after): 55%

COC(=O)C1=C(C)NC(C)=C(C(=O)OCCCSc2ccc(F)cc2)C1C (centres unmarked) [LAU-0904, 2,4,6-Trimethyl-1,4-dihydro-pyridine-3,5-dicarboxylic acid 5-[3-(4-fluorophenysulfanyl)]-propyl-1-ester 3-methyl ester]
Reduction of infarcted volume [2, 9]: 40%

CCCOc1ccc(SCCCOC(=O)C2=C(C)NC(C)=C(C(=O)OC)C2C)cc1 (centres unmarked) [LAU-0907, 2,4,6-Trimethyl-1,4-dihydro-pyridine-3,5-dicarboxylic acid 5-[3-(4-propoxyphenylsulfanyl)]-propyl-1-ester 3-methyl ester]
Inhibition of COX-2 transcription induced by PAF (human COX-2 promoter [3]): inhibited | Inhibition of COX-2 transcription induced by IL-1β (human COX-2 promoter [4]): inhibited

COC(=O)C1=C(C)NC(C)=C(C(=O)OCCCOc2ccc(/C=C/C(C)=O)cc2)C1C (centres unmarked) [LAU-0908]
Inhibition of COX-2 transcription induced by PAF (human COX-2 promoter [3]): inhibited | Inhibition of COX-2 transcription induced by IL-1β (human COX-2 promoter [4]): inhibited

CCCCOc1ccc(OCCCOC(=O)C2=C(C)NC(C)=C(C(=O)OC)C2C)cc1 (centres unmarked) [LAU-0910, 2,4,6-Trimethyl-1,4-dihydropyridine-3,5-dicarboxylic acid 3-[3-(4-butoxyphenoxy)propyl]ester 5-methyl ester]
Amount of Hoechst staining (cytoprotection) (ARPE-19 cells): most

CCCC(=O)c1ccc(OCCCOC(=O)C2=C(C)NC(C)=C(C(=O)OC)C2C)cc1 (centres unmarked) [LAU-0913, 2,4,6-Trimethyl-1,4-dihydro-pyridine-3,5-dicarboxylic acid 5-[3-(4-butyryl-phenoxy)-propyl]1-ester 3-methyl ester]
Inhibition of COX-2 transcription induced by PAF (human COX-2 promoter [3]): inhibited | Inhibition of COX-2 transcription induced by IL-1β (human COX-2 promoter [4]): inhibited

CCCCCCCCCCCCCCCCOC[C@H](COP(=O)([O-])OCC[N+](C)(C)C)OC(C)=O [^3H-PAF, ^3H-platelet-activating factor, reference compound]
Kd ([5]; high-affinity binding site (H)): 0.00205 nM | Kd ([5]; low-affinity binding site (L)): 30 nM | Kd [6]: 0.15 nM | Kd 3H-PAF [7]: No binding

CC(=O)Nc1ccc(O)cc1 [acetaminophen]
LD50 [8]: 560 mg/kg
